{
  "source": "patent US20210255193A1",
  "about": "“LYSINE REACTIVE PROBES AND USES THEREOF” (The Scripps Research Institute, priority 2017, published 2021)",
  "key": {"PFKP [1]": {"target": "T1, PFKP (Homo sapiens, UniProt Q01813)", "T1 construct": "Flag; expressed in transfected cells; host or cells: HEK 293T, transient transfection, soluble lysate; cDNA clone 5180268 (Dharmacon)", "T1 sequence (Q01813 1-784)": "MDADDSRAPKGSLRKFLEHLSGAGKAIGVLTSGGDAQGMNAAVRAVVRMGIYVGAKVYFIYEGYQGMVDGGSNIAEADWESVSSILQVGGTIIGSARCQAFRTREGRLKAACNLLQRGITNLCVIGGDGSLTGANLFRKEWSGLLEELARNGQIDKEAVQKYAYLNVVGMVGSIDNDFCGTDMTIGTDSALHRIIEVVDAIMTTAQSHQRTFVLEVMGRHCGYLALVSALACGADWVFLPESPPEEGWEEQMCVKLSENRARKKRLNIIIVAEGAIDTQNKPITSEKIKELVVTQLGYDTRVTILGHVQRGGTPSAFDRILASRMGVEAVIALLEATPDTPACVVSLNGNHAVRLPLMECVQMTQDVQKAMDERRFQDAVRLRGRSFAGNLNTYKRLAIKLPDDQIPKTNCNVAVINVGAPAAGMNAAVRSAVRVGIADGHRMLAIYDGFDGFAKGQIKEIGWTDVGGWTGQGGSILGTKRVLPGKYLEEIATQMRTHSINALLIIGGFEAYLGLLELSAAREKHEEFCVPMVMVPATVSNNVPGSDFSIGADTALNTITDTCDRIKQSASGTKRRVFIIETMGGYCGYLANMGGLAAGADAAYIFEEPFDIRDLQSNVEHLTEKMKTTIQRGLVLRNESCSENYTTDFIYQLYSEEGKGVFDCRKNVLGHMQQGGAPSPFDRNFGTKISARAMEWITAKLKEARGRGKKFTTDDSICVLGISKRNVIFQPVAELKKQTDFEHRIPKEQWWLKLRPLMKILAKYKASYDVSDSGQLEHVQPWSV", "experiment": "competitive gel-based ABPP, apparent IC50", "format": "binding", "conditions": "read-out: apparent IC50, blockade of probe labeling of recombinant PFKP", "description": "(§1) Recombinant expression of proteins by transient transfection. HEK 293T cells were grown to 50% confluency in 10 ml DMEM supplemented with 10% fetal bovine serum (FBS), penicillin, streptomycin and glutamine in 10 cm tissue culture dishes. 3 μg of DNA was diluted in 500 μL DMEM and 30 μL of PEI (MW 40,000, 1 mg ml^−1, Polysciences) were added. The mixture was incubated at room temperature for 30 min and added dropwise to the cells. Cells were grown for 48 h at 37° C. with 5% CO2. Cells were washed with cold PBS, scraped with cold PBS and cell pellets were isolated by centrifugation (1,400 g, 3 min, 4° C.), and stored at −80° C. until use. Cell pellets were resuspended in PBS, lysed by sonication and fractionated (100,000 g, 45 min) to yield soluble and membrane fractions. The soluble fraction was adjusted to a final protein concentration of 1 mg ml^−1 for gel-based ABPP experiments.\n(§2) Competitive gel-based ABPP and apparent IC50 values. 50 μl of soluble proteome (1 mg ml^−1) expressing the indicated protein were treated with fragment electrophiles (1 μl of 50× stock solution in DMSO) at ambient temperature for 1 h. The indicated probe (fluorophore or alkyne-containing, 1 μl of a 500 μM solution, final concentration=10 μM) was then added and allowed to react for an additional 1 h. CuAAC and in-gel fluorescence analysis were performed as described above. For quantification of inhibition and apparent IC50 determination, the percentage of labeling was determined by quantifying the integrated optical intensity of the bands using ImageLab 5.2.1 software (BioRad). Nonlinear regression analysis was used to determine the IC50 values from a dose-response curve generated using GraphPad Prism 7."}, "PFKP [2]": {"target": "T1, PFKP", "experiment": "PFKP functional assay", "format": "biochemical", "conditions": "WT-PFKP", "description": "(§3) PFKP functional assay. For inhibitor experiments, 50 μl of soluble proteome (initial total protein concentration: 1 mg ml^−1) from HEK 293T cells expressing PFKP (WT or K688R mutant) or mock transfected cells (empty vector; negative control) were incubated with 1 μl 50× of the compound in DMSO or DMSO for the positive or negative control for 1 h at room temperature. Lysates were diluted 40× with dilution buffer (PBS containing 0.2 mg ml^−1 BSA and 5 mM MgCl2) and 40 μl were added into a clear bottom 384 well plate. 10 μl of a mixture of 3.5 μl PBS, 2.5 μl fructose-6-phosphate (100 mM), 1 μl NADH (20 mM), 1 μl ATP (50 mM), 1 μl aldolase (50 U ml^−1) and 1 μl GDH/TPI (500 U ml^−1 TPI, 50 U ml^−1 GDH) were added to start the reaction. The absorbance of NADH was measured at 340 nm every minute for 30 min.\n(§4) Calculation of relative activity or percent inhibition. For PNPO, PFKP, NUDT2 and G6PD, the slope of the linear regression of the linear portion of the absorbance or fluorescence over time was used as measure their activity. Apparent activity was calculated relative to the WT. Percent inhibition was calculated relative to the positive and negative control and used to calculate IC50 values by nonlinear regression analysis from a dose-response curve generated using GraphPad Prism 7."}, "PFKP [3]": {"target": "T2, PFKP (Homo sapiens, UniProt Q01813, K688R)", "T2 construct": "Flag; expressed in transfected cells; host or cells: HEK 293T, transient transfection, soluble lysate; cDNA clone 5180268 (Dharmacon)", "T2 sequence (Q01813 whole entry K688R)": "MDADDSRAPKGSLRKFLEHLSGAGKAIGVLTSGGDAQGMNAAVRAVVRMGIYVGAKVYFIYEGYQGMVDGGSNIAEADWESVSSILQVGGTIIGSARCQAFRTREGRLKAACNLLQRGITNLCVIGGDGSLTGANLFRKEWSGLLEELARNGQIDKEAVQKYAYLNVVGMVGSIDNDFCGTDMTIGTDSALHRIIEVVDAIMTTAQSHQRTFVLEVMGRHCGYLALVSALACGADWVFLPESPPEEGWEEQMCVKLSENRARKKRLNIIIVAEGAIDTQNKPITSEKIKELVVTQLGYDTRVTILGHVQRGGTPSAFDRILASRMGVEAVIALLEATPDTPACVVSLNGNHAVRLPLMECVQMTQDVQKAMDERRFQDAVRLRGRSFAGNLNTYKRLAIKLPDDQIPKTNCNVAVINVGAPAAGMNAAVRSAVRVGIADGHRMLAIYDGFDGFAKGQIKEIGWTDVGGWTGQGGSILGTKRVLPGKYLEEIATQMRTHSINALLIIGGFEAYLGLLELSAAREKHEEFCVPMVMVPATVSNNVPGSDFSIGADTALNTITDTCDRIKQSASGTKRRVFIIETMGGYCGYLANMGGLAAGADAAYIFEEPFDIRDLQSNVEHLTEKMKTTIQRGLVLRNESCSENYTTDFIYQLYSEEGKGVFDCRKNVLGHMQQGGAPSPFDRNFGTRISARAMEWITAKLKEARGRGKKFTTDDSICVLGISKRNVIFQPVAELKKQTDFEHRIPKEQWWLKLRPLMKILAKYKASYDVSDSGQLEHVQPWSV", "experiment": "PFKP functional assay", "format": "biochemical", "conditions": "K688R mutant", "description": "as §3, §4"}, "[4]": {"target": "T3, Flag-tagged SIN3A (a.a. 1-400) (Homo sapiens, UniProt Q96ST3)", "T3 construct": "expressed in transfected cells; host or cells: HEK 293T, transient transfection, lysate", "T3 sequence (Q96ST3 1-400)": "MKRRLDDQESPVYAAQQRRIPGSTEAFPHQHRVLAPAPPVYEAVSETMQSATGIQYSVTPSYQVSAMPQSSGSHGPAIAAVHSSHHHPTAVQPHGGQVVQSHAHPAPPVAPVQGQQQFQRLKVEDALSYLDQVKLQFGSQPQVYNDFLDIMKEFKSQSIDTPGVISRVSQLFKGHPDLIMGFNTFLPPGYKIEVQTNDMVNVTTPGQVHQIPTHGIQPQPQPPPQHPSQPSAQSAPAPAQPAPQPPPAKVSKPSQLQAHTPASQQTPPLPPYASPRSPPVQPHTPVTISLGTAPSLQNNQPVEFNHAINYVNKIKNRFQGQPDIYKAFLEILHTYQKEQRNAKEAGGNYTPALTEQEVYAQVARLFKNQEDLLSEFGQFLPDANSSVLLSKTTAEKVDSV", "experiment": "competitive gel-based ABPP, apparent IC50", "format": "binding", "conditions": "probe 17, HEK293T cell lysates", "description": "as §1, §2"}},
  "note": "pIC50: −log10 of the molar value. “Also recorded” adds a separate entry of the source.",
  "data": [
    {"smiles": "O=C(Oc1c(F)c(F)c(F)c(F)c1F)C(c1ccccc1)c1ccccc1", "note": "[fragment 20, Pentafluorophenyl 2,2-diphenylacetate]", "values": [
      {"measurement": "pIC50", "setting": "PFKP [1]", "value": 5.70},
      {"measurement": "pIC50", "setting": "PFKP [2]; enzyme-coupled assay, read-out: apparent IC50, inhibition of PFKP activity", "value": 5.54},
      {"measurement": "maximal inhibitory effect, reduction in substrate turnover", "setting": "PFKP [2]; plateau", "value": "about 80%"},
      {"measurement": "inhibition of K688R-PFKP mutant activity", "setting": "PFKP [3]", "value": "not the K688R-PFKP mutant"}
    ]},
    {"smiles": "O=C(Oc1c(F)c(F)c(F)c(F)c1F)c1cc(C(F)(F)F)cc(C(F)(F)F)c1", "note": "[fragment 21, Pentafluorophenyl 3,5-bis(trifluoromethyl)benzoate]", "values": [
      {"measurement": "blockade of probe labeling of K155", "setting": "[4]", "value": "site-specific and complete blockade of probe labeling of K155; also recorded: blocks probe 17 labeling of SIN3A at K155 in a concentration-dependent manner"},
      {"measurement": "pIC50", "setting": "[4]; read-out: apparent IC50, blockade of probe labeling of K155", "value": 5.30}
    ]}
  ]
}
